Data on 3 compounds can be found in US11363979B2, “Addressable vertical nanowire probe arrays and fabrication methods” (priority 2016, dated 2022).

Like-named read-outs stand apart in the source and are kept apart here.

For assay [1], the system named is mouse hippocampal neurons. The assay can be described thus: Pharmacological stimulation and inhibition of neurons recorded on the vertical Si nanowire probe array. In kind it is cell-based.
The test system of assay [2] is human iPSC-derived neurons. In kind it is cell-based.

In the case of glutamate, the “cellular activity / neuronal spiking” value in assay [1] was “increased”. Besides, in assay [1] (intracellular configuration, injection, nanowire recording), the “cell activity (frequency and amplitude) compared to the baseline spontaneous activity measured on the same channel” value was “increase of the cell activity with respect to frequency and amplitude”.
Turning to `NC1=N[C@H](O)[C@H]2[C@H]3O[C@]4(O)O[C@@H]([C@@H](O)[C@@]2(N1)[C@@H]4O)[C@]3(O)CO` [TTX, tetrodotoxin], in assay [1], the “activity relative to the baseline recording” value is listed as “eliminated” and the “cellular activity / neuronal spiking” value is “neuronal spiking vanished”.
With `[Cl-].[K+]` [KCl], the “firing (rate) of spontaneous action potentials” value in assay [2] and in assay [1] was “increased firing rate” each time. Moreover, the “cellular activity / neuronal spiking” value in assay [1] is “increased”. Besides, in assay [1] (extracellular configuration, injection, nanowire recording), the “activity relative to the baseline recording” value is “increased activity relative to the baseline recording”.
